According to PubChem BioAssay (NCI):
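Growth conditions: 96-well plates. Treatment: test compound, 48 hours, 5 concentrations. Analysis: linear interpolation between bracketing concentrations; unreached endpoints set to highest concentration. GI50 = concentration required for 50% inhibition of growth. TGI: total growth inhibition.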

What was measured:
Assay in all cases: DTP human tumour cell line panel, 48 h
786-0 renal = system: 786-0 renal
BT-549 breast = system: BT-549 breast
HCT-116 colon = system: HCT-116 colon
KM12 colon = system: KM12 colon
MCF7 breast = system: MCF7 breast
MDA-MB-435 = system: MDA-MB-435
MOLT-4 leukemia = system: MOLT-4 leukemia
TK-10 renal = system: TK-10 renal
U251 CNS = system: U251 CNS
M14 melanoma = system: M14 melanoma

SMILES | TGI (786-0 renal) [µM] | TGI (BT-549 breast) [µM] | TGI (HCT-116 colon) [µM] | TGI (KM12 colon) [µM] | TGI (MCF7 breast) [µM] | TGI (MDA-MB-435) [µM] | TGI (MOLT-4 leukemia) [µM] | TGI (TK-10 renal) [µM] | TGI (U251 CNS) [µM] | GI50 (KM12 colon) [µM] | GI50 (MCF7 breast) [µM] | GI50 (MDA-MB-435) [µM] | GI50 (MOLT-4 leukemia) [µM] | TGI (M14 melanoma) [µM]
CC(=O)O[C@@H](c1nccn1Cc1ccccc1)[C@H]1OC(C)(C)O[C@@H]1[C@H]1COC(C)(C)O1 | > 100 | > 100 | > 100 | > 100 | > 100 | > 100 | > 100 | > 100 | > 100 |  |  |  |  | 
c1ccc(-c2c(-c3ccccc3)[n+](Cc3ccc4ccccc4c3)c(-c3ccc(-c4nc5ccccc5s4)cc3)n2Cc2ccc3ccccc3c2)cc1 |  |  |  | 0.336 | 0.337 | 0.557 | 0.759 |  |  | 0.13 | 0.0587 | 0.209 | 0.139 | 
O=C1C=CC2(O[C@H](c3ccccc3)[C@@H](c3ccccc3)O2)[C@H](Sc2ccccc2O)C1 | 0.356 | 1.46 | 0.309 | 6.45 | 2.44 | 0.982 |  | 0.966 | 1.78 |  |  |  |  | 0.609
OCc1cn(Cc2ccccc2)c2ccccc12 | > 53 | 23.1 | > 26.3 | > 63.8 | > 18 | > 64.7 | > 100 |  | 60.6 |  |  |  |  | > 54.3
CCOC(=O)c1csc(NC(=O)C(C)N2CCCC2)n1 (stereo not given) |  |  |  | > 100 | > 100 | > 100 |  | > 100 | > 100 |  |  |  |  | > 100
Cn1nc(-c2ccc(S(=O)(=O)/N=C(\NN)Nc3ccc(Cl)cc3)s2)cc1C(F)(F)F | 30.6 | 33.3 | 29.2 | 31.5 | 44.5 |  | 22.4 | 35.6 | 28.3 |  |  |  |  | 31.5
COC(=O)CC(=O)OSc1ccccc1 |  |  | 26.9 | > 100 |  |  | > 100 | > 100 | 24.1 |  |  |  |  | 38.7
COC(=O)CNC(=O)C(CSC(=O)OCC1c2ccccc2-c2ccccc21)NC(=O)CCC(NC(=O)OCC1c2ccccc2-c2ccccc21)C(=O)OC (stereo not given) | 26.6 | 31.3 | 32.5 |  | 42.8 | 67.4 | 56.8 | > 100 |  |  |  |  |  | 58.9
CC1CC(N2CCOCC2)=Nc2ccccc2N1C (stereo not given) | > 100 | > 100 | > 100 | > 100 |  | > 100 | > 100 | > 100 | > 100 |  |  |  |  | > 100
CC(=O)NNc1nc(C)c(C(=O)NNC(=O)C(=O)Nc2ccc([N+](=O)[O-])cc2[N+](=O)[O-])s1 |  |  | > 100 | > 100 |  |  | > 100 | > 100 | > 100 |  |  |  |  | > 100
CO/N=C1\CC(NC(=O)C(F)(F)F)c2ccsc21 (stereo not given) |  | > 100 | > 100 |  | > 100 | > 100 | > 100 | > 100 | > 100 |  |  |  |  | > 100
Cc1c2cccc-2c2cc(O)c3ccccc3c2n1-c1ccc(N(C)C)cc1 | 33.1 | 23.3 | 35.4 | 23.1 | 17.4 | 27.8 |  | 32.5 | 25.9 |  |  |  |  | 27.9
COc1ccc(N=Nc2c(-c3c(OC)cc4occc4c3OC)[nH]c(=O)c(C#N)c2C)cc1 | > 100 |  | > 100 | > 100 | > 100 | > 100 | > 100 | > 100 | > 100 |  |  |  |  | > 100
